Reference: patent US6399629B1, “Efflux pump inhibitors” (priority 1998, dated 2002)
Counter-ions that a name gives are not always drawn.

Tested on: Pseudomonas aeruginosa PAM1001
Test: microbe, parasite or virus in culture
Assay type: cell-based
Conditions: for Inhibition (%) of growth of P. aeruginosa PAM1001: Levofloxacin 0.25 μg/mL; for inhibition at 2.5 µg/mL / inhibition at 5 µg/mL / inhibition at 10 µg/mL / inhibition at 20 µg/mL / inhibition at 40 µg/mL: Pseudomonas aeruginosa, PAM1001, read-out: Inhibition (%) of growth of P. aeruginosa PAM1001
Method: For compounds labeled with the prefix ‘D’, potentiation is measured by inhibition of growth of Pseudomonas aeruginosa PAM1001 at varying concentrations of efflux pump inhibitors (EPIs) in the presence of levofloxacin (0.25 microg/mL). Bacteria are grown in Mueller Hinton Broth (MHB, Difco) with an initial inoculum of 1×10^6 CFU/mL. Kinetics of bacterial growth is monitored, during 18 h of incubation at 37° C., by measurement of the culture absorbance at 650 nm using a 96-well plate spectrophotometer (SpectraMax, Molecular Devices). The inhibitory effect of EPIs is expressed as a percentage of growth inhibition compared to a control bacterial culture grown in the presence of 0.25 microg/mL levofloxacin but without EPIs.

[1] = Concentration of Compound 2.5 μg/mL
[2] = Concentration of Compound 5 μg/mL
[3] = Concentration of Compound 10 μg/mL
[4] = Concentration of Compound 20 μg/mL
[5] = Concentration of Compound 40 μg/mL

| SMILES | Inhibition (%) of growth of P. aeruginosa PAM1001 [1] | Inhibition (%) of growth of P. aeruginosa PAM1001 [2] | Inhibition (%) of growth of P. aeruginosa PAM1001 [3] | Inhibition (%) of growth of P. aeruginosa PAM1001 [4] | Inhibition (%) of growth of P. aeruginosa PAM1001 [5] | inhibition at 2.5 µg/mL | inhibition at 5 µg/mL | inhibition at 10 µg/mL | inhibition at 20 µg/mL | inhibition at 40 µg/mL |
| --- | --- | --- | --- | --- | --- | --- | --- | --- | --- | --- |
| CNCC(=O)N[C@H]1CN[C@H](C(=O)N2C[C@H](NC(=O)[C@H](O)CCc3ccccc3)C[C@H]2C(=O)Nc2cnc3ccccc3c2)C1.Cl.Cl.Cl (relative stereo) [Compound D106] | 19% | 19% | 20% | 19% | 100% |  |  |  |  |  |
| NCC(=O)N[C@H]1CN[C@H](C(=O)N2CCC(Oc3cc(Cl)cc(Cl)c3)CC2)C1 [Compound D414, 1-(trans-4-Glycylamino-L-Prolyl)-4-(3,5-dichlorophenoxy)piperidine Dihydrochloride] |  |  |  |  |  | 19% | 98% | 100% | 100% | 100% |
| NCC(=O)N[C@H]1CN[C@H](C(=O)Nc2ccc(SCc3ccccc3)cc2)C1 [Compound D320, trans-4-Glycylamino-L-Proline 4-Benzylthiophenyl-amide Dihydrochloride] |  |  |  |  |  | 23% | 21% | 97% | 100% | 100% |
| NCC(=O)N[C@H]1CN[C@H](C(=O)Nc2ccc(Nc3ccccc3)cc2)C1 [Compound D304, trans-4-Glycylamino-L-Proline 4-Phenylamino-phenylamide Dihydrochloride] |  |  |  |  |  | 17% | 15% | 10% | -11% | 100% |
| Cl.Cl.Cl.NCC(=O)NC1CNC(C(=O)Nc2cccc(NC(=O)CCc3ccccc3)n2)C1 [Compound D702, 2-(trans-4-Glycylamino-L-Prolylamino)-6-(4-Phenylpropanoylamino)Pyridine Trihydrochloride] | 19% | 15% | 82% | 100% | 100% |  |  |  |  |  |
| Cc1c(Cl)cccc1N1CCN(C(=O)[C@@H]2C[C@@H](CN)CN2)CC1 [Compound D407, 1-(trans-4-Aminomethyl-L-Prolyl)-4-(3-Chloro-2-methylphenyl)piperazine Dihydrochloride] |  |  |  |  |  | 100% | 100% | 99% | 99% | 98% |
| Cl.Cl.NCC(=O)N[C@H]1CN[C@H](C(=O)NCc2ccc(-c3ccccc3)cc2)C1 (relative stereo) [Compound D316, trans-4-Glycylmino-L-Proline 4-Phenylbenzylamide Dihydrochloride] | 20% | 20% | 21% | 82% | 100% |  |  |  |  |  |
| Cl.Cl.NCC(=O)N[C@H]1CN[C@H](C(=O)N2CCN(c3ccc(Cl)cc3)CC2)C1 (relative stereo) [Compound D403, 1-(N-trans-4-Glycylamino-L-Prolyl)-4-(4-Chlorophenyl)piperazine Dihydrochloride] | 25% | 22% | 22% | 4% | 61% |  |  |  |  |  |
| NCC(=O)N[C@H]1CN[C@H](C(=O)N2CCN(c3cccc(Cl)c3)CC2)C1 [Compound D401, 1-(trans-4-Glycylamino-L-Prolyl)-4-(3-Chlorophenyl)-piperazine Dihydrochloride] |  |  |  |  |  | 21% | 19% | 15% | 4% | 96% |
| Cl.Cl.NCC(=O)N[C@@H]1CN[C@@H](C(=O)N2CCC(Oc3cc(Cl)cc(Cl)c3)CC2)C1 [Compound D415] | 13% | 99% | 100% | 100% | 100% |  |  |  |  |  |
